Legend:
[1] = biological target: T1, Tryptophan 5-hydroxylase 1 (Homo sapiens, UniProt P17752)
T1 sequence (P17752 whole entry): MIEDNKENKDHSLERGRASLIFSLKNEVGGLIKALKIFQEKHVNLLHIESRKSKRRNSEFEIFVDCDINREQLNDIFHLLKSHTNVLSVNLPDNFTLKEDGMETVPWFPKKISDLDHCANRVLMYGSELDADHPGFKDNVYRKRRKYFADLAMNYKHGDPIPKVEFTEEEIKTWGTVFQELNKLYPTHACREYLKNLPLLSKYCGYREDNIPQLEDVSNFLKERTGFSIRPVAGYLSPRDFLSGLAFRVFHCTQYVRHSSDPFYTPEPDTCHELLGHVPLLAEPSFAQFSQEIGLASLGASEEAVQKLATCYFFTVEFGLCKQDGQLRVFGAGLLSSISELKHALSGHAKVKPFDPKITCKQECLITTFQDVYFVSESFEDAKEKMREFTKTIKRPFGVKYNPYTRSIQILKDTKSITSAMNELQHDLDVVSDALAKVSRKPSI
Description: Inhibition of TPH1 (unknown origin)

Mus musculus [2] = experiment: Drug level in mouse treated with (S)-ethyl 8-(2-amino-6-((R)-1-(5-chloro-3'-(methylsulfonyl)biphenyl-2-yl)-2,2,2-trifluoroethoxy)pyrimidin-4-yl)-2,8-diazaspiro[4.5]decane-3-carboxylate at 10 to 50 mg/kg, po administered as single dose; type: ADME, organism-based; conditions: in vivo
Mus musculus [3] = experiment: Prodrug activation in mouse assessed as (S)-8-(2-amino-6-((R)-1-(3'-tert-butyl-5-chlorobiphenyl-2-yl)-2,2,2-trifluoroethoxy)pyrimidin-4-yl)-2,8-diazaspiro[4.5]decane-3-carboxylic acid formation at 10 to 50 mg/kg, po administered as single dose; type: organism-based; conditions: in vivo
Mus musculus [4] = experiment: In vivo inhibition of TPH1 in mouse assessed as reduction in 5-HT level in intestinal mucosa at 50 mg/kg, po administered daily as single dose relative to control; type: functional
Mus musculus [5] = experiment: In vivo inhibition of TPH1 in mouse assessed as reduction in 5-HT level in intestinal mucosa at 10 mg/kg, po administered daily as single dose relative to control; type: functional
Mus musculus [6] = experiment: Drug level in mouse treated with (S)-ethyl 8-(2-amino-6-((R)-1-(5-chloro-3'-(trifluoromethyl)biphenyl-2-yl)-2,2,2-trifluoroethoxy)pyrimidin-4-yl)-2,8-diazaspiro[4.5]decane-3-carboxylate at 10 to 50 mg/kg, po administered as single dose; type: ADME, organism-based; conditions: in vivo
Mus musculus [7] = experiment: Prodrug activation in mouse assessed as (S)-8-(2-amino-6-((R)-1-(5-chloro-3'-methylbiphenyl-2-yl)-2,2,2-trifluoroethoxy)pyrimidin-4-yl)-2,8-diazaspiro[4.5]decane-3-carboxylic acid formation at 10 to 50 mg/kg, po administered as single dose; type: organism-based; conditions: in vivo
Mus musculus [8] = experiment: Drug level in mouse treated with (S)-ethyl 8-(2-amino-6-((R)-1-(5-chloro-3',5'-difluorobiphenyl-2-yl)-2,2,2-trifluoroethoxy)pyrimidin-4-yl)-2,8-diazaspiro[4.5]decane-3-carboxylate at 10 to 50 mg/kg, po administered as single dose; type: ADME, organism-based; conditions: in vivo
Mus musculus [9] = experiment: Prodrug activation in mouse assessed as (S)-8-(2-amino-6-((R)-1-(5-chloro-3'-fluorobiphenyl-2-yl)-2,2,2-trifluoroethoxy)pyrimidin-4-yl)-2,8-diazaspiro[4.5]decane-3-carboxylic acid formation at 10 to 50 mg/kg, po administered as single dose; type: organism-based; conditions: in vivo
Mus musculus [10] = experiment: Prodrug activation in mouse assessed as (S)-8-(2-amino-6-((R)-1-(5-chloro-3',5'-difluorobiphenyl-2-yl)-2,2,2-trifluoroethoxy)pyrimidin-4-yl)-2,8-diazaspiro[4.5]decane-3-carboxylic acid formation at 10 to 50 mg/kg, po administered as single dose; type: organism-based; conditions: in vivo
Mus musculus [11] = experiment: Drug level in mouse treated with (S)-ethyl 8-(2-amino-6-((R)-1-(5-chloro-3'-methoxybiphenyl-2-yl)-2,2,2-trifluoroethoxy)pyrimidin-4-yl)-2,8-diazaspiro[4.5]decane-3-carboxylate at 10 to 50 mg/kg, po administered as single dose; type: ADME, organism-based; conditions: in vivo
Mus musculus [12] = experiment: Prodrug activation in mouse assessed as (S)-8-(2-amino-6-((R)-1-(5-chloro-3'-sulfamoylbiphenyl-2-yl)-2,2,2-trifluoroethoxy)pyrimidin-4-yl)-2,8-diazaspiro[4.5]decane-3-carboxylic acid formation at 10 to 50 mg/kg, po administered as single dose; type: organism-based; conditions: in vivo
Mus musculus [13] = experiment: Prodrug activation in mouse assessed as (S)-8-(2-amino-6-((R)-1-(5-chloro-3'-methoxybiphenyl-2-yl)-2,2,2-trifluoroethoxy)pyrimidin-4-yl)-2,8-diazaspiro[4.5]decane-3-carboxylic acid formation at 10 to 50 mg/kg, po administered as single dose; type: organism-based; conditions: in vivo
Mus musculus [14] = experiment: Drug level in mouse treated with (S)-ethyl 8-(2-amino-6-((R)-1-(5-chloro-3'-sulfamoylbiphenyl-2-yl)-2,2,2-trifluoroethoxy)pyrimidin-4-yl)-2,8-diazaspiro[4.5]decane-3-carboxylate at 10 to 50 mg/kg, po administered as single dose; type: ADME, organism-based; conditions: in vivo
Mus musculus [15] = experiment: Prodrug activation in mouse assessed as (S)-8-(2-amino-6-((R)-1-(5-chloro-3'-(methylsulfonyl)biphenyl-2-yl)-2,2,2-trifluoroethoxy)pyrimidin-4-yl)-2,8-diazaspiro[4.5]decane-3-carboxylic acid formation at 10 to 50 mg/kg, po administered as single dose; type: organism-based; conditions: in vivo
[16] = Volume of distribution at steady state in beagle dog at 1 mg/kg, iv; type: ADME, organism-based, Canis lupus familiaris; conditions: beagle, in vivo, read-out: Vdss
Rattus norvegicus [17] = experiment: Half life in rat at 1 mg/kg, iv; type: ADME, organism-based; conditions: in vivo
[18] = Clearance in beagle dog at 1 mg/kg, iv; type: ADME, organism-based, Canis lupus familiaris; conditions: in vivo
[19] = Half life in beagle dog at 1 mg/kg, iv; type: ADME, organism-based, Canis lupus familiaris; conditions: beagle, in vivo
Rattus norvegicus [20] = experiment: Volume of distribution at steady state in rat at 1 mg/kg, iv; type: ADME, organism-based; conditions: in vivo
[21] = biological target: T2, Tryptophan 5-hydroxylase 2 (Homo sapiens, UniProt Q8IWU9); experiment: Inhibition of TPH2 (unknown origin)
T2 sequence (Q8IWU9 whole entry): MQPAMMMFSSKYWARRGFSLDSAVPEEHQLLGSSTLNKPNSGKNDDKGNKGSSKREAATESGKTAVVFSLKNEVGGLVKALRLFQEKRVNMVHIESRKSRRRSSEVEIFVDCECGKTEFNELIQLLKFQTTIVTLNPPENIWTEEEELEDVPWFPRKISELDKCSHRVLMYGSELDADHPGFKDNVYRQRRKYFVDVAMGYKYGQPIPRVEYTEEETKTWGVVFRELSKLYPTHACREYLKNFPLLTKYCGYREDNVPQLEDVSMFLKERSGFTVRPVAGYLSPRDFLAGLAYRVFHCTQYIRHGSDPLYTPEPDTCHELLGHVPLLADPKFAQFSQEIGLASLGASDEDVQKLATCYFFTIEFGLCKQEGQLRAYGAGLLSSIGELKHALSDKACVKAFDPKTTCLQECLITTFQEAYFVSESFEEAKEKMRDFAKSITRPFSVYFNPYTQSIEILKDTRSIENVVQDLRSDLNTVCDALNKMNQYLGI

Rattus norvegicus [22] = experiment: Clearance in rat at 1 mg/kg, iv relative to hepatic blood flow; type: ADME, organism-based; conditions: in vivo
Canis familiaris = experiment: Clearance in beagle dog at 1 mg/kg, iv relative to hepatic blood flow; type: ADME, organism-based, Canis lupus familiaris; conditions: in vivo
Mus musculus [23] = experiment: Drug level in mouse treated with (S)-ethyl 8-(2-amino-6-((R)-1-(5-chlorobiphenyl-2-yl)-2,2,2-trifluoroethoxy)pyrimidin-4-yl)-2,8-diazaspiro[4.5]decane-3-carboxylate at 10 to 50 mg/kg, po administered as single dose; type: ADME, organism-based; conditions: in vivo
Mus musculus [24] = experiment: Prodrug activation in mouse assessed as (S)-8-(2-amino-6-((R)-1-(5-chloro-3'-(trifluoromethyl)biphenyl-2-yl)-2,2,2-trifluoroethoxy)pyrimidin-4-yl)-2,8-diazaspiro[4.5]decane-3-carboxylic acid formation at 10 to 50 mg/kg, po administered as single dose; type: organism-based; conditions: in vivo

CS(=O)(=O)c1cccc(-c2cc(Cl)ccc2[C@@H](Oc2cc(N3CCC4(CC3)CN[C@H](C(=O)O)C4)nc(N)n2)C(F)(F)F)c1
IC50 [1]: 14 nM
Drug metabolism (Mus musculus [2]): Metabolite_Detected

CCOC(=O)[C@@H]1CC2(CCN(c3cc(O[C@H](c4ccc(Cl)cc4-c4cccc(C(C)(C)C)c4)C(F)(F)F)nc(N)n3)CC2)CN1
Drug metabolism (Mus musculus [3]): Metabolite_Detected
inhibition in vivo at 50 mg/kg (Mus musculus [4]): 59%
inhibition in vivo at 10 mg/kg (Mus musculus [5]): 33%

Nc1nc(O[C@H](c2ccc(Cl)cc2-c2cccc(C(F)(F)F)c2)C(F)(F)F)cc(N2CCC3(CC2)CN[C@H](C(=O)O)C3)n1
Drug metabolism (Mus musculus [6]): Metabolite_Detected
IC50 [1]: 21 nM

CCOC(=O)[C@@H]1CC2(CCN(c3cc(O[C@H](c4ccc(Cl)cc4-c4cccc(C)c4)C(F)(F)F)nc(N)n3)CC2)CN1
inhibition in vivo at 50 mg/kg (Mus musculus [4]): 54%
inhibition in vivo at 10 mg/kg (Mus musculus [5]): 24%
Drug metabolism (Mus musculus [7]): Metabolite_Detected

Nc1nc(O[C@H](c2ccc(Cl)cc2-c2cc(F)cc(F)c2)C(F)(F)F)cc(N2CCC3(CC2)CN[C@H](C(=O)O)C3)n1
Drug metabolism (Mus musculus [8]): Metabolite_Detected
IC50 [1]: 22 nM

CCOC(=O)[C@@H]1CC2(CCN(c3cc(O[C@H](c4ccc(Cl)cc4-c4cccc(F)c4)C(F)(F)F)nc(N)n3)CC2)CN1
inhibition in vivo at 50 mg/kg (Mus musculus [4]): 61%
inhibition in vivo at 10 mg/kg (Mus musculus [5]): 38%
Drug metabolism (Mus musculus [9]): Metabolite_Detected

CCOC(=O)[C@@H]1CC2(CCN(c3cc(O[C@H](c4ccc(Cl)cc4-c4cc(F)cc(F)c4)C(F)(F)F)nc(N)n3)CC2)CN1
Drug metabolism (Mus musculus [10]): Metabolite_Detected
inhibition in vivo at 50 mg/kg (Mus musculus [4]): 37%
inhibition in vivo at 10 mg/kg (Mus musculus [5]): 30%

COc1cccc(-c2cc(Cl)ccc2[C@@H](Oc2cc(N3CCC4(CC3)CN[C@H](C(=O)O)C4)nc(N)n2)C(F)(F)F)c1
Drug metabolism (Mus musculus [11]): Metabolite_Detected
IC50 [1]: 19 nM

CCOC(=O)[C@@H]1CC2(CCN(c3cc(O[C@H](c4ccc(Cl)cc4-c4cccc(S(N)(=O)=O)c4)C(F)(F)F)nc(N)n3)CC2)CN1
inhibition in vivo at 50 mg/kg (Mus musculus [4]): 42%
inhibition in vivo at 10 mg/kg (Mus musculus [5]): 15%
Drug metabolism (Mus musculus [12]): Metabolite_Detected

CCOC(=O)[C@@H]1CC2(CCN(c3cc(O[C@H](c4ccc(Cl)cc4-c4cccc(OC)c4)C(F)(F)F)nc(N)n3)CC2)CN1
inhibition in vivo at 50 mg/kg (Mus musculus [4]): 46%
Drug metabolism (Mus musculus [13]): Metabolite_Detected
inhibition in vivo at 10 mg/kg (Mus musculus [5]): 19%

Nc1nc(O[C@H](c2ccc(Cl)cc2-c2cccc(S(N)(=O)=O)c2)C(F)(F)F)cc(N2CCC3(CC2)CN[C@H](C(=O)O)C3)n1
Drug metabolism (Mus musculus [14]): Metabolite_Detected
IC50 [1]: 11 nM

CCOC(=O)[C@@H]1CC2(CCN(c3cc(O[C@H](c4ccc(Cl)cc4-c4cccc(S(C)(=O)=O)c4)C(F)(F)F)nc(N)n3)CC2)CN1
inhibition in vivo at 50 mg/kg (Mus musculus [4]): 38%
Drug metabolism (Mus musculus [15]): Metabolite_Detected

Nc1nc(O[C@H](c2ccc(Cl)cc2-c2ccccc2)C(F)(F)F)cc(N2CCC3(CC2)CN[C@H](C(=O)O)C3)n1 [RODATRISTAT]
Vd [16]: 0.24 L/kg
t1/2 (Rattus norvegicus [17]): 12.1 h
clearance [18]: 1.2 mL/min/kg
half-life [19]: 4.8 h
Vdss (Rattus norvegicus [20]): 7.8 L/kg
IC50 [21]: 7 nM
IC50 [1]: 33 nM
CL (Rattus norvegicus [22]): 1.2%
CL (Canis familiaris): 4%
Drug metabolism (Mus musculus [23]): Metabolite_Detected

CCOC(=O)[C@@H]1CC2(CCN(c3cc(O[C@H](c4ccc(Cl)cc4-c4cccc(C(F)(F)F)c4)C(F)(F)F)nc(N)n3)CC2)CN1
Drug metabolism (Mus musculus [24]): Metabolite_Detected
inhibition in vivo at 50 mg/kg (Mus musculus [4]): 64%
inhibition in vivo at 10 mg/kg (Mus musculus [5]): 31%

From ChEMBL document CHEMBL4000220, “Optimization of spirocyclic proline tryptophan hydroxylase-1 inhibitors” (Bioorg Med Chem Lett, 2017)
